Each structure is given as a SMILES string. pIC50: −log10 of the molar value.

This test has as its target T1, recombinant human MER (Homo sapiens, UniProt Q12866).
T1 construct: purchased Invitrogen
T1 sequence (Q12866 21-999): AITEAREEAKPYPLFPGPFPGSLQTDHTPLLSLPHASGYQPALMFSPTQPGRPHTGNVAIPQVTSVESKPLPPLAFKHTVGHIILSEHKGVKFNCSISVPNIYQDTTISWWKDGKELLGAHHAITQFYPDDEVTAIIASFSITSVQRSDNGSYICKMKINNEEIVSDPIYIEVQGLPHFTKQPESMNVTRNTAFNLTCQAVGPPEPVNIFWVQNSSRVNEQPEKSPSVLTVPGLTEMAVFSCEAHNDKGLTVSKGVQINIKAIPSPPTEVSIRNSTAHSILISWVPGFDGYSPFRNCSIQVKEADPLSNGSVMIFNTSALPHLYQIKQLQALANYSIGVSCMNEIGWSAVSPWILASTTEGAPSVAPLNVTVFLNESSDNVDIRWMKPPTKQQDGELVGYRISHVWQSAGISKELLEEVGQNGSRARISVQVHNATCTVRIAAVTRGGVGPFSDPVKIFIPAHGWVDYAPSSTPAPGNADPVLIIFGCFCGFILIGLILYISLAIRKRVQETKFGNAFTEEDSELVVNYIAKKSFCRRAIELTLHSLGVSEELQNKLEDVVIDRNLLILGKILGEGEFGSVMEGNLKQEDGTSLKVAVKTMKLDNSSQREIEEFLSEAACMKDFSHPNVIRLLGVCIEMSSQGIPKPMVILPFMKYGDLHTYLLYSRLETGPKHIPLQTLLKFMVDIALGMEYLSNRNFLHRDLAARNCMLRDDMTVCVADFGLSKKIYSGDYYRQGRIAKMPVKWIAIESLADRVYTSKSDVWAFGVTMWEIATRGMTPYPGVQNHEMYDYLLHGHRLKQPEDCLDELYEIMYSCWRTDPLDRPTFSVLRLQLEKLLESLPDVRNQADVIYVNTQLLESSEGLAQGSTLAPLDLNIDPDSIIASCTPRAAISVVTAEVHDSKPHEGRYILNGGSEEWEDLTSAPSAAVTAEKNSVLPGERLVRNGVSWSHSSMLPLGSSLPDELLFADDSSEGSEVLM
As to the kind of experiment: HTRF KinEASE-TK biochemical potency, MER. As to conditions: 1 nM MER, 700 μM ATP. On the procedure:
Purified recombinant human AXL, TYRO3 and MER proteins were purchased from Invitrogen™. 10 nM AXL, 2 nM TYRO3 or MER were incubated with varying concentrations of compounds in 50 mM HEPES, pH 7.4, 10 mM MgCl2, 0.01% BSA, 1 mM DTT and 2% DMSO in a total volume of 20 μl in a 384-well microplate (Corning™ #3640) at RT for 1 h. The AXL, TYRO3 and MER enzymatic reaction was initiated by transferring 10 μl of enzyme and compound mixture into 10 μl of 1.6 μM TK Substrate-biotin (HTRF® KinEASE-TK kit, Cisbio) and 1400 μM ATP pre-incubated in 50 mM HEPES, pH 7.4, 10 mM MgCl2, 0.01% BSA, 1 mM DTT in a 384-well microplate (Corning™ #3640) at RT, giving the final reaction conditions: 5 nM AXL, 1 nM TYRO3 or MER, 800 nM TK Substrate-biotin and 700 μM ATP in 50 mM HEPES, pH 7.4, 10 mM MgCl2, 0.01% BSA, 1 mM DTT and 1% DMSO with varying concentrations of compounds. Following 2 h incubation at RT, the AXL, TYRO3 and MER enzymatic reaction was stopped by transfer of 10 μl of reaction into 10 μl of detection mix (400 nM Streptavidin-XL665, 200-fold dilution TK Antibody-Cryptate and detection buffer, HTRF® KinEASE-TK kit, Cisbio) in a white 384-well microplate (Perkin Elmer, OptiPlate 384). After 1 h incubation at RT, the plate was put into a plate reader (Evision) to read at 665/620 nm (acceptor/donor) for HTRF. The value of the DMSO blank (MIN inhibition=100% activity) was used as a negative control. The positive control was established by adding 5 μl of enzyme and DMSO mixture into 10 μl of detection mix followed by addition of 5 μl of TK Substrate-biotin and ATP mixture (MAX inhibition=0% activity). To calculate the percent activity, Equation 1 was used. Ratio665/620 is the value at a given compound concentration: […]
(Time-resolved FRET reads energy transfer from a long-lived donor to a nearby acceptor.)
Take `C[C@H]1CCCN1C1(C)CCc2ccc(-c3cnc4[nH]nc(-c5ccc6c(c5)OCCNC6=O)c4c3)cc2CC1` (stereo partly drawn) [Example 24, 8-(5-{7-Methyl-7-[(2S)-2-methylpyrrolidin-1-yl]-6,7,8,9-tetrahydro-5H-benzo[7]annulen-2-yl}-1H-pyrazolo[3,4-b]pyridin-3-yl)-2,3,4,5-tetrahydro-1,4-benzoxazepin-5-one]: the negative logarithm of the IC50 (pIC50) – broadly, −log10 of the IC50, conventionally taken in molar units – is over 7.00.

As for `C[C@@H]1CCCN1C1CCc2ccc(-c3cnc4[nH]nc(-c5ccc6c(c5)OCC5(CC5)NC6=O)c4c3)cc2CC1` (stereo partly drawn) [Example 36, 8-(5-{7-[(2R)-2-Methylpyrrolidin-1-yl]-6,7,8,9-tetrahydro-5H-benzo[7]annulen-2-yl}-1H-pyrazolo[3,4-b]pyridin-3-yl)-4,5-dihydro-2H-spiro[1,4-benzoxazepine-3,1′-cyclopropan]-5-one], the pIC50 was over 7.00.

Turning to `O=C1NCCOc2cc(-c3n[nH]c4ncc(-c5ccc6c(c5)CCN(C5CCCC5)CC6)cc34)ccc21` [Example 7, 8-[5-(3-Cyclopentyl-2,3,4,5-tetrahydro-1H-3-benzazepin-7-yl)-1H-pyrazolo[3,4-b]pyridin-3-yl]-2,3,4,5-tetrahydro-1,4-benzoxazepin-5-one], the negative-log IC50 (pIC50) was over 7.00.

For the compound `O=C1NCCOc2cc(-c3n[nH]c4ncc(-c5ccc6c(c5)CCN(C(=O)C5CC5)CC6)cc34)ccc21` [Example 17, 8-[5-(3-Cyclopropanecarbonyl-2,3,4,5-tetrahydro-1H-3-benzazepin-7-yl)-1H-pyrazolo[3,4-b]pyridin-3-yl]-2,3,4,5-tetrahydro-1,4-benzoxazepin-5-one], the pIC50 was over 7.00.

Turning to `O=C1NCCOc2cc(-c3n[nH]c4ncc(-c5ccc6c(c5)CCC(N[C@@H]5CCOC5)C6)cc34)ccc21` (stereo partly drawn) [Example 5, 8-[5-(6-{[(3R)—Oxolan-3-yl]amino}-5,6,7,8-tetrahydronaphthalen-2-yl)-1H-pyrazolo[3,4-b]pyridin-3-yl]-2,3,4,5-tetrahydro-1,4-benzoxazepin-5-one], the pIC50 was over 7.00.

`CC1(O)CCCOc2cc(-c3n[nH]c4ncc(-c5ccc6c(c5)CCN(C5CCCC5)CC6)cc34)ccc21` (stereo not drawn) [Example 28, (8-[5-(3-Cyclopentyl-2,3,4,5-tetrahydro-1H-3-benzazepin-7-yl)-1H-pyrazolo[3,4-b]pyridin-3-yl]-5-methyl-2,3,4,5-tetrahydro-1-benzoxepin-5-ol)]: the negative-log IC50 (pIC50) was 6.00 to 7.00.

For the compound `O=C1NCCOc2cc(-c3n[nH]c4ncc(-c5ccc6c(c5)CCC(N5CCOCC5)CC6)cc34)ccc21` (stereo not drawn) [Example 47, 8-{5-[7-(Morpholin-4-yl)-6,7,8,9-tetrahydro-5H-benzo[7]annulen-2-yl]-1H-pyrazolo[3,4-b]pyridin-3-yl}-2,3,4,5-tetrahydro-1,4-benzoxazepin-5-one], the pIC50 was over 7.00.

Consider `C[C@H]1CCCN1C1Cc2ccc(-c3cnc4[nH]nc(-c5ccc6c(c5)OCC(C)(C)NC6=O)c4c3)cc2C1` (stereo partly drawn) [Example 39, 3,3-Dimethyl-8-(5-{2-[(2S)-2-methylpyrrolidin-1-yl]-2,3-dihydro-1H-inden-5-yl}-1H-pyrazolo[3,4-b]pyridin-3-yl)-2,3,4,5-tetrahydro-1,4-benzoxazepin-5-one], for which the pIC50 is 6.00 to 7.00.

For `C[C@@H]1CCCN1C1CCc2ccc(-c3cnc4[nH]nc(-c5ccc6c(c5)S(=O)(=O)NC6(C)C)c4c3)cc2CC1` (stereo partly drawn) [Example 33, 3,3-Dimethyl-6-(5-{7-[(2R)-2-methylpyrrolidin-1-yl]-6,7,8,9-tetrahydro-5H-benzo[7]annulen-2-yl}-1H-pyrazolo[3,4-b]pyridin-3-yl)-2,3-dihydro-1λ^6,2-benzothiazole-1,1-dione], the pIC50 was over 7.00.

As to `Cc1cc2c(cc1-c1n[nH]c3ncc(-c4ccc5c(c4)CCC(N4CCC[C@H]4C)CC5)cc13)OCCNC2=O` (stereo partly drawn) [Example 40, 7-Methyl-8-(5-{7-[(2R)-2-methylpyrrolidin-1-yl]-6,7,8,9-tetrahydro-5H-benzo[7]annulen-2-yl}-1H-pyrazolo[3,4-b]pyridin-3-yl)-2,3,4,5-tetrahydro-1,4-benzoxazepin-5-one], the pIC50 was 6.00 to 7.00.

As for `O=C1NCCOc2cc(-c3n[nH]c4ncc(-c5ccc6c(c5)CCC(N[C@H]5CCOC5)C6)cc34)ccc21` (stereo partly drawn) [Example 4, 8-[5-(6-{[(3S)—Oxolan-3-yl]amino}-5,6,7,8-tetrahydronaphthalen-2-yl)-1H-pyrazolo[3,4-b]pyridin-3-yl]-2,3,4,5-tetrahydro-1,4-benzoxazepin-5-one], the pIC50 was over 7.00.

For `O=C1NCCOc2cc(-c3n[nH]c4ncc(-c5ccc6c(c5)CCN(C5CC5)C6)cc34)ccc21` [Example 21, 8-(5-(2-Cyclopropyl-1,2,3,4-tetrahydroisoquinolin-6-yl)-1H-pyrazolo[3,4-b]pyridin-3-yl)-3,4-dihydrobenzo[f][1,4]oxazepin-5(2H)-one], the pIC50 was 6.00 to 7.00.

With `O=C1NCCOc2cc(-c3n[nH]c4ncc(-c5ccc6c(c5)CCC(N5CCNCC5)CC6)cc34)ccc21` (stereo not drawn) [Example 48, 8-{5-[7-(Piperazin-1-yl)-6,7,8,9-tetrahydro-5H-benzo[7]annulen-2-yl]-1H-pyrazolo[3,4-b]pyridin-3-yl}-2,3,4,5-tetrahydro-1,4-benzoxazepin-5-one], the pIC50 was over 7.00.

Regarding `CC1(C)NS(=O)(=O)c2cc(-c3n[nH]c4ncc(-c5ccc6c(c5)CCC(N5CCC[C@@H]5CO)CC6)cc34)ccc21` (stereo partly drawn) [Example 34, 6-(5-{7-[(2R)-2-(Hydroxymethyl)pyrrolidin-1-yl]-6,7,8,9-tetrahydro-5H-benzo[7]annulen-2-yl}-1H-pyrazolo[3,4-b]pyridin-3-yl)-3,3-dimethyl-2,3-dihydro-1λ^6,2-benzothiazole-1,1-dione], the pIC50 was over 7.00.

With `O=C1NCCOc2cc(-c3n[nH]c4ncc(-c5ccc6c(c5)CCC(N[C@@H]5CCOC5)CC6)cc34)ccc21` (stereo partly drawn) [Example 46, 8-[5-(7-{[(3R)—Oxolan-3-yl]amino}-6,7,8,9-tetrahydro-5H-benzo[7]annulen-2-yl)-1H-pyrazolo[3,4-b]pyridin-3-yl]-2,3,4,5-tetrahydro-1,4-benzoxazepin-5-one], the pIC50 was over 7.00.

Regarding `C[C@@H]1CCCN1C1CCc2ccc(-c3cnc4[nH]nc(-c5ccc6c(c5)C(=O)NC6(C)C)c4c3)cc2CC1` (stereo partly drawn) [Example 38, 3,3-Dimethyl-6-(5-{7-[(2R)-2-methylpyrrolidin-1-yl]-6,7,8,9-tetrahydro-5H-benzo[7]annulen-2-yl}-1H-pyrazolo[3,4-b]pyridin-3-yl)-2,3-dihydro-1H-isoindol-1-one], the pIC50 is 6.00 to 7.00.

On to `Cc1c(-c2n[nH]c3ncc(-c4ccc5c(c4)CCC(N4CCC[C@H]4C)CC5)cc23)ccc2c1OCCNC2=O` (stereo partly drawn) [Example 41, 9-Methyl-8-(5-{7-[(2R)-2-methylpyrrolidin-1-yl]-6,7,8,9-tetrahydro-5H-benzo[7]annulen-2-yl}-1H-pyrazolo[3,4-b]pyridin-3-yl)-2,3,4,5-tetrahydro-1,4-benzoxazepin-5-one], for which the negative logarithm of the IC50 (pIC50) was 6.00 to 7.00.

As for `C[C@@H]1CCCN1C1CCc2ccc(-c3cnc4[nH]nc(-c5ccc6c(c5)OCCNS6(=O)=O)c4c3)cc2CC1` (stereo partly drawn) [Example 66, 7-(5-{7-[(2R)-2-Methylpyrrolidin-1-yl]-6,7,8,9-tetrahydro-5H-benzo[7]annulen-2-yl}-1H-pyrazolo[3,4-b]pyridin-3-yl)-3,4-dihydro-2H-5,12,2-benzoxathiazepine-1,1-dione], the pIC50 is 6.00 to 7.00.

The values are drawn from patent US20240226115A1, “AXL INHIBITOR COMPOUNDS” (ARCUS BIOSCIENCES, INC., priority 2021, published 2024).
